pKi: −log10 of the molar value.
Target: T1, leukotriene D4 receptors (guinea pig lung membranes) (Cavia porcellus, UniProt Q2NNR5)
T1 construct: prepared from tissues obtained from male Hartley guinea pigs; from tissue; host or cells: guinea pig lung membranes (male Hartley guinea pigs)
T1 sequence (Q2NNR5 1-340): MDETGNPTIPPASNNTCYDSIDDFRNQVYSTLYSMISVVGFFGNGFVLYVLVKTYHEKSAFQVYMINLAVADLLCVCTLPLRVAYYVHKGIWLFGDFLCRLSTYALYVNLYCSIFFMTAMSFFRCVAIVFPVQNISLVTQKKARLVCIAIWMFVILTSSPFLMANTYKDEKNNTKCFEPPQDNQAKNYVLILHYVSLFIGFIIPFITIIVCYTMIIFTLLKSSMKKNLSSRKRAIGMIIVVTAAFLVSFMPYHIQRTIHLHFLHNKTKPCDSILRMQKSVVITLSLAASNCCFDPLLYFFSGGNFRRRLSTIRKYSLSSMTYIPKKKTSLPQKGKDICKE
Assay: [3H]-LTD4 binding studies in guinea pig lung membranes
Description: Experimental Procedure for Binding Studies in Guinea-Pig Lungs with Pranlukast and Metabolites
Non-specific binding was determined in the presence of 0.5 uM cold LTD4. Membranes with bound ligand were captured on Whatman GF/C filters using vacuum filtration and a Brandel cell harvester, then washed with ice-cold 25 mM Tris-HCl. pH 7.4. The filters were placed in scintillation vials with 10 ml Ready Protein (Beckman, Fullerton, Calif., U.S.A.) and the radioactivity was determined by scintillation spectrometry.
All data are presented as Mean±S.E.M. Concentration-response curves (0.3-10,000 nM) for each compound were tested in at least 2 assays and run in duplicate. Cell-bound radioactivity was determined for each sample and non-specific binding was established in the presence of 1 uM unlabeled LTD4 and subtracted from control and drug-treated samples.

Row | SMILES | pKi
1 | O=C(Nc1cccc2c(=O)cc(-c3nnnn3O)oc12)c1ccc(OCCCCc2ccccc2)cc1 [Example 1, 4-Oxo-8-[4-(4-phenylbutoxy)benzoylamino]-2-(1-hydroxytetrazol-5-yl)-4H-1-benzopyran] | 9.66
2 | O=C(Nc1cccc2c(=O)cc(-c3nnn(O)n3)oc12)c1ccc(OCCCCc2ccccc2)cc1 [Example 2, 4-Oxo-8-[4-(4-phenylbutoxy)benzoylamino]-2-(2-hydroxytetrazol-5-yl)-4H-1-benzopyran] | 9.28

— patent US6069257A, “Process for the production of tetrazolylbenzopyrans” (SmithKline Beecham p.l.c., priority 1997, dated 2000)
